Test results as given in US20160355544A1, “NOVEL CHOLESTEROL METABOLITE, 5-CHOLESTEN, 3BETA-25-DIOL, DISULFATE (25HCDS) FOR THERAPY OF METABOLIC DISORDERS, HYPERLIPIDEMIA, DIABETES, FATTY LIVERS DISEASES AND ATHEROSCLEROSIS” (priority 2012, published 2016).
Several values for one entry are separate records, joined by “and”; a condition that tells them apart may be missing. Equal values may be shown once.

Experiments:
[1] = Liver function assays in sera of HFD-fed mice; assay type: in vivo, C57BL/6J mice; conditions: data not shown
Protocol: (§1) Animal studies were approved by Institutional Animal Care and Use Committee of McGuire Veterans Affairs Medical Center and were conducted in accordance with the Declaration of Helsinki, the Guide for the Care and Use of Laboratory Animals, and all applicable regulations. To examine the effect of 25HCDS on diet-induced lipid accumulation in sera and liver, 8-week-old female C57BL/6J mice (Charles River, Wilmington, Mass.) were fed high fat diet (HFD) (Harlan Teklad, Madison, Wis.) containing 42% kcal from fat, 43% kcal from carbohydrate, 15% kcal from protein and 0.2% cholesterol for 10 weeks. All mice were housed under identical conditions in an aseptic facility and given free access to water and food. At the end of each period, the mice were intraperitoneally injected with vehicle solution (ethanol/PBS; Vehicle), or 25HCDS (25 mg/kg) once every three days for 6 weeks and fasted for overnight; and blood samples were collected. Serum triglyceride, total cholesterol, high density lipoprotein-cholesterol, glucose, alkaline phosphatase (ALK), alanine aminotransferase (ALT), and aspartate aminotransferase (AST) were measured using standard enzymatic techniques in the clinical laboratory at McGuire Veterans Affairs Medical Center. Lipoprotein profiles in sera were analyzed by HPLC as described below.

PPARγ = PPARγ mRNA regulation by 25HC3S (comparison in discussion); conditions: administration of 25HC3S, compared with 25HCDS
[2] = test system: Hepatic mRNA Expression involved in lipid metabolism in the Mice Fed a HFD; assay: Relative hepatic mRNA expression of lipid metabolism genes in HFD-fed mice (real-time RT-PCR); assay type: in vivo, C57BL/6J mice; conditions: 25HCDS 25 mg/kg i.p. once every three days for 6 weeks, HFD vehicle = 1.0, mean ± SD, n = 7
Protocol: (§2) Total RNA was isolated with SV Total RNA Isolation Kit (Promega, Madison, Wis.), which included DNase treatment. Total RNA, 2 μg, was used for the first-strand cDNA synthesis as recommended by the manufacturer (Invitrogen, Carlsbad, Calif.). Real-time RT-PCR was performed using a suitable dye as indicator on ABI 7500 Fast Real-Time PCR System (Applied Biosystems, Foster City, Calif.). All primer/probe sets for real-time PCR were TaqMan gene expression assays (Applied Biosystems, Foster City, Calif.). Amplifications of β-actin and glyceraldehyde 3-phosphate dehydrogenase (GAPDH) were used as internal controls. Relative messenger RNA (mRNA) expression was quantified with the comparative cycle threshold (Ct) method and was expressed as 2^−ΔΔct. The sequences of suitable primers for amplification are described, for example, in Ren et al., 2007 (1).
as §1

[3] = test system: Hepatic mRNA Expression involved in inflammatory responses in the Mice Fed a HFD; assay: Relative hepatic mRNA expression of inflammatory response genes in HFD-fed mice (real-time RT-PCR); assay type: in vivo, C57BL/6J mice
Protocol: as §2, §1

[4] = Body mass, caloric intake, liver weight and toxicity during long-term treatment of HFD-fed mice; assay type: in vivo, C57BL/6J mice
Protocol: as §1
To study the effects of long-term treatment of 25HCDS on lipid homeostasis, 8-week-old C57BL/6J female mice were fed a HFD for 10 weeks, and then divided into two groups. One group was treated with 25HCDS and the other with vehicle by peritoneal injection once every three days for six weeks. During the treatment, the mice were fed a HFD, and body mass and caloric intakes were monitored. […] After 6 weeks of injections, the mice were fasted overnight, and sacrificed.

THP-1 macrophages = assay: mRNA levels in THP-1 macrophages by real-time RT-PCR; assay type: cell-based, Human
Protocol: Human THP-1 monocytes and HepG2 cells were purchased from the American Type Culture Collection (ATCC, Manassas, Va.) and maintained according to the supplier's protocols. THP-1 monocytes were differentiated to macrophages by adding 100 nM of phorbol 12-myristate 13-acetate (PMA). When cells reached ˜90% confluence, 25HCDS in ethanol (the final concentration of ethanol in media was 0.1%) was added. The cells were harvested at the indicated times for protein, mRNA, and lipid analysis.
as §2

HFD-fed mice = assay: Quantification of hepatic lipids in mouse NAFLD model (HFD-fed mice); assay type: in vivo, C57BL/6J mice
Protocol: as §1
Liver tissues were homogenized, and lipids were extracted with a mixture of chloroform and methanol (2:1), and filtered. The extracts, 0.2 ml, were evaporated to dryness and dissolved in 100 μl of isopropanol containing 10% of TRITON™ X-100 (C14H22O(C2H4O)n), a nonionic surfactant) for cholesterol assay (Wako Chemicals USA, Richmond, Va.), the NEFA solution (0.5 g of EDTA-Na2, 2 g of TRITON™ X-100, 0.76 ml of IN NaOH, and 0.5 g of sodium azide/l, pH 6.5) for free fatty acid assay (Wako Chemicals USA, Richmond, Va.), or isopropanol only for triglyceride assay (Fisher Scientific, Pittsburgh, Pa.). All of the assays were performed according to the manufacturer's instructions, respectively. Each lipid concentration was normalized to liver weight.

[5] = 25 mg/kg i.p. once every three days for 6 weeks, versus HFD vehicle
[6] = 25HCDS 25 mg/kg i.p. once every three days for 6 weeks, HFD vehicle = 1.0, mean ± SD, n = 7
[7] = HFD-fed mice during 6 weeks of treatment, versus vehicle, data not shown
[8] = in vivo studies, 25HCDS administration
[9] = concentration dependent and time dependent, FIG. 5A
[10] = HFD-fed mice, 25 mg/kg i.p. once every three days for 6 weeks, versus HFD vehicle, 25 mg/kg

SMILES: C[C@H](CCCC(C)(C)O)[C@H]1CC[C@H]2[C@@H]3CC=C4C[C@@H](OS(=O)(=O)O)CC[C@]4(C)[C@H]3CC[C@]12C [25HC3S, 5-Cholesten-3β, 25-diol 3-sulfate]
- alkaline phosphatase activity in sera [1]: decreasing
- PPARγ mRNA (PPARγ): only slightly increases

SMILES: C[C@H](CCCC(C)(C)OS(=O)(=O)O)[C@H]1CC[C@H]2[C@@H]3CC=C4C[C@@H](OS(=O)(=O)O)CC[C@]4(C)[C@H]3CC[C@]12C [25HCDS, 5-cholesten-3β, 25-diol, disulfate]
- ACC1 relative hepatic mRNA expression [2]: 0.86 ± 0.18
- CD36 relative hepatic mRNA expression [2]: 0.69 ± 0.29
- FAS relative hepatic mRNA expression [2]: 0.68 ± 0.17
- GPAM relative hepatic mRNA expression [2]: 0.74 ± 0.18
- HMGR relative hepatic mRNA expression [2]: 0.84 ± 0.07
- LDLR relative hepatic mRNA expression [2]: 0.62 ± 0.08
- MTTP relative hepatic mRNA expression [2]: 0.94 ± 0.17
- PLTP relative hepatic mRNA expression [2]: 0.68 ± 0.21
- SREBP-1c relative hepatic mRNA expression [2]: 0.64 ± 0.14
- SREBP-2 relative hepatic mRNA expression [2]: 1.12 ± 0.25
- increase of PGC-1α expression in the liver [3, 5]: 2 fold
- suppression of IL1β expression in liver [3, 5]: 36%
- suppression of TNFα expression in liver [3, 5]: 50%
- IL1α relative hepatic mRNA expression [3, 6]: 1.02 ± 0.20
- IL1β relative hepatic mRNA expression [3, 6]: 0.64 ± 0.16
- IkBα relative hepatic mRNA expression [3, 6]: 1.35 ± 0.27
- PGC-1α relative hepatic mRNA expression [3, 6]: 2.11 ± 0.82
- PPARα (Peroxisome proliferator-activated receptor gamma) relative hepatic mRNA expression [3, 6]: 1.27 ± 0.52
- TNFv (Tumor necrosis factor a) relative hepatic mRNA expression [3, 6]: 0.50 ± 0.21
- body mass [4, 7]: No significant difference
- caloric intakes [4, 7]: No significant difference
- liver weights ([4]; after 6 weeks of injections, data not shown): did not show significant differences
- toxicity [4, 8]: without exhibiting toxicity
- PPARγ mRNA levels (THP-1 macrophages; FIG. 5C, 5D): linearly increased
- expression of SREBP1/2 (THP-1 macrophages; FIGS. 5A and 5B): decreases
- IκBα expression (THP-1 macrophages; at an early stage and at low concentrations): coincidently increased
- ACC mRNA levels (THP-1 macrophages; [9]): decreases
- FAS mRNA levels (THP-1 macrophages; [9]): decreases
- HMG-CoA reductase mRNA levels (THP-1 macrophages; concentration dependent and time dependent, FIG. 5B): decreases
- decrease of total cholesterol in liver tissue (HFD-fed mice; HFD-fed mice, 25 mg/kg i.p. once every three days for 6 weeks, versus HFD vehicle): 30%
- decrease of free fatty acids in liver tissue (HFD-fed mice; [10]): 20% and 25%
- decrease of triglycerides in liver tissue (HFD-fed mice; [10]): 18% and 20%
- decrease of hepatic neutral lipids (HFD-fed mice; [8]): 20-35%
